Legend:
[1] = IV Cassette PK Assay in rats; format: in vivo; conditions: rat, male Wistar-Han rats, plasma, read-out: Cassette PK T1/2 (hr), Imidazo-Pyrazinyl Analog (converted)
Experimental: The results were obtained using the following the procedure:
Adult male Wistar-Han rats were fasted overnight and administered a cassette IV dose of mixture of several compounds via a previously implanted catheter in the femoral vein. Animals were allowed access to food 4 h post dose. Blood samples were collected into EDTA-containing tubes at the following time points: 0.03, 0.13, 0.25, 0.5, 1, 2, 4, 8 h post-dose. Blood samples were stored on ice until plasma was harvested by centrifugation. Plasma was transferred to a 96-well plate and stored at −20° C. until analysis. Concentrations of each compound in rat plasma were determined by LC-MS/MS following protein precipitation.

[2] = system: Spontaneously hypertensive rats (SHR); assay: Acute Efficacy in Spontaneously Hypertensive Rats (SHR), telemetry blood pressure; format: in vivo, rat; conditions: single oral gavage
Method in brief: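 Male SHR fitted with aortic telemetry transmitters and recovered 14 days; conscious blood pressure sampled 30 s every 10 min. Single oral gavage dose (vehicle 10% transcutol/20% Cremophor/70% water); hourly SBP change versus prior-day vehicle baseline, reported as maximum peak decrease.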

sGC α1/β1 heterodimer = target: T1, sGC α1/β1 heterodimer (Homo sapiens, UniProt Q02108+Q02153); assay: Cell-Based sGC Functional Assay (CASA Assay), cGMP generation in CHO-K1/sGC cells;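 also: reference Compound A is a published heme-dependent sGC activator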; conditions: maximum cGMP production of Compound A set to 100% activation, read-out: % Act. (percent activation relative to Compound A)
T1 construct: expressed in transfected cells
T1 sequence (Q02108 1-690): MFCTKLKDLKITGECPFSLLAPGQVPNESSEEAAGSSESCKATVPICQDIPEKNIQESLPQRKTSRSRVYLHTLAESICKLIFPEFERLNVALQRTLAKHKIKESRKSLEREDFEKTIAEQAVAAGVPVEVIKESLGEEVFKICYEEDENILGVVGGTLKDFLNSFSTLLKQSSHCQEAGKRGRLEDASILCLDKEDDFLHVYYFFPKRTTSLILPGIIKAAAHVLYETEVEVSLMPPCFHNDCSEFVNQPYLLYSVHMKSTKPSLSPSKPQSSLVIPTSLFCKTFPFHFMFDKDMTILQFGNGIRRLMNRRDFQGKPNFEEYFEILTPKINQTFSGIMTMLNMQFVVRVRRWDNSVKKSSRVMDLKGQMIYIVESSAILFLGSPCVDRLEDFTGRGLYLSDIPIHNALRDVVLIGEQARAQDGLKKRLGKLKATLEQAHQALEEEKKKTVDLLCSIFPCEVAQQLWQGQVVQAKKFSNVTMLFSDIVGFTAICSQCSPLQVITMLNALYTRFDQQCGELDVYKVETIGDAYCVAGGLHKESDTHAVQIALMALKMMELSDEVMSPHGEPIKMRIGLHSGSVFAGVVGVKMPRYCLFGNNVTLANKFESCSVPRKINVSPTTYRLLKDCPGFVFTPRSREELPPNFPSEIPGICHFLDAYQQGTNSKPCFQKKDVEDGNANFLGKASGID
T1 sequence (Q02153 1-619): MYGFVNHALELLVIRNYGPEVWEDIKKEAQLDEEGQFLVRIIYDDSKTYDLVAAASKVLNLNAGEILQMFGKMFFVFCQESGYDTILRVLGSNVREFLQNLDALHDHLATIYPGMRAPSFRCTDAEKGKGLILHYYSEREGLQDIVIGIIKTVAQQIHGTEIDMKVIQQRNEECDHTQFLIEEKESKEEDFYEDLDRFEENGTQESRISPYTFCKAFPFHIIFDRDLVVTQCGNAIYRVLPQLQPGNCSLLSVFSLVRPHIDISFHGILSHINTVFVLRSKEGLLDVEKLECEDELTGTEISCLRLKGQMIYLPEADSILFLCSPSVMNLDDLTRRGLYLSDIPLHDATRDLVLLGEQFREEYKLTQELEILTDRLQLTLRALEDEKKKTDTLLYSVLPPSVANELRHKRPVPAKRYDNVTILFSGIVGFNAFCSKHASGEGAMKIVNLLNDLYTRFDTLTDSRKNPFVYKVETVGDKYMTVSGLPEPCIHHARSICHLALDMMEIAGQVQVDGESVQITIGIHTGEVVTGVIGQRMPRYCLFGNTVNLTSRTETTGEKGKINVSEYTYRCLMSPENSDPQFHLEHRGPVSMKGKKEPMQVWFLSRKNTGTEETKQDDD
Method in brief: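 Intracellular cGMP quantified by HTRF competition after 1 h, 37 °C compound exposure, with or without 1 μM DETA-NO, in stable CHO-K1/sGC α1/β1 cells (4×10^5/mL; buffer with 0.5 mM IBMX, 5 mM MgCl2, 10 mM HEPES, 0.05% BSA; 2.5% DMSO). Activation normalized to reference Compound A maximum; 4P fit.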

| Compound | half-life [1] | Maximum peak decrease of systolic blood pressure (SBP) in SHR, Cat. ([2]; P.O. 1 mpk) | Emax (sGC α1/β1 heterodimer) | Maximum peak decrease of systolic blood pressure (SBP) in SHR, Cat. ([2]; P.O. 3 mpk) | Maximum peak decrease of systolic blood pressure (SBP) in SHR, Cat. ([2]; P.O. 0.3 mpk) |
| --- | --- | --- | --- | --- | --- |
| Nc1nc(-c2cn3ccnc3c(CCCC(F)(F)F)n2)nc2c1C(c1ccc(C(F)F)cn1)(C1CC1)C(=O)N2 (stereo not shown) | 2.12 h | – | – | – | – |
| CC1(c2ccc(F)cn2)C(=O)Nc2nc(-c3cn4ccnc4c(CCC(F)(F)C(F)(F)F)n3)nc(N)c21 (stereo not shown) | 1.41 h | – | – | – | – |
| CC1(c2ccc(F)cn2)C(=O)Nc2nc(-c3cn4ncnc4c(CCC(F)(F)C(F)(F)F)n3)nc(O)c21 (stereo not shown) [Example 122B, 5-(5-fluoropyridin-2-yl)-4-hydroxy-5-methyl-2-(8-(3,3,4,4,4-pentafluorobutyl)-[1,2,4]triazolo[1,5-a]pyrazin-6-yl)-5H-pyrrolo[2,3-d]pyrimidin-6(7H)-one] | – | B (Category B=SBP in SHRs 20-40 mmHg) | 100% | – | – |
| CC1(c2ccc(F)cn2)C(=O)Nc2nc(-c3cn4ncnc4c(CCCC(F)(F)F)n3)nc(O)c21 (stereo not shown) [Example 136B, 5-(5-fluoropyridin-2-yl)-4-hydroxy-5-methyl-2-(8-(4,4,4-trifluorobutyl)-[1,2,4]triazolo[1,5-a]pyrazin-6-yl)-5H-pyrrolo[2,3-d]pyrimidin-6(7H)-one] | – | – | 69% | B (Category B=SBP in SHRs 20-40 mmHg) | – |
| CC1(c2ccc(Cl)cn2)C(=O)Nc2nc(-c3cn4ncnc4c(CCC(F)(F)C(F)(F)F)n3)nc(N)c21 (stereo not shown) [Example 3A, 4-amino-5-(5-chloropyridin-2-yl)-5-methyl-2-(8-(3,3,4,4,4-pentafluorobutyl)-[1,2,4]triazolo[1,5-a]pyrazin-6-yl)-5H-pyrrolo[2,3-d]pyrimidin-6(7H)-one] | – | – | 161% | – | B (Category B=SBP in SHRs 20-40 mmHg) |
| C[C@@]1(c2ccc(F)cc2)C(=O)Nc2nc(-c3cn4ncnc4c(CCC(F)(F)F)n3)nc(N)c21 [Example 74A, (S)-4-amino-5-(4-fluorophenyl)-5-methyl-2-(8-(3,3,3-trifluoropropyl)-[1,2,4]triazolo[1,5-a]pyrazin-6-yl)-5,7-dihydro-6H-pyrrolo[2,3-d]pyrimidin-6-one] | – | B (Category B=SBP in SHRs 20-40 mmHg) | 110% | – | – |
| Nc1nc(-c2cn3ncnc3c(CCC(F)(F)C(F)(F)F)n2)nc2c1C(c1ccccn1)(C1CC1)C(=O)N2 (stereo not shown) [Example 114A, 4-amino-5-cyclopropyl-2-(8-(3,3,4,4,4-pentafluorobutyl)-[1,2,4]triazolo[1,5-a]pyrazin-6-yl)-5-(pyridin-2-yl)-5,7-dihydro-6H-pyrrolo[2,3-d]pyrimidin-6-one] | – | B (Category B=SBP in SHRs 20-40 mmHg) | 122% | – | – |
| CC1(c2ccc(Cl)c(F)c2)C(=O)Nc2nc(-c3cn4ncnc4c(CCCC(F)(F)F)n3)nc(O)c21 (stereo not shown) [Example 138B, 5-(4-chloro-3-fluorophenyl)-4-hydroxy-5-methyl-2-(8-(4,4,4-trifluorobutyl)-[1,2,4]triazolo[1,5-a]pyrazin-6-yl)-5H-pyrrolo[2,3-d]pyrimidin-6(7H)-one] | – | C (Category C=SBP in SHRs >40 mmHg) | 164% | – | – |
| CC1(c2ccc(Cl)cc2)C(=O)Nc2nc(-c3cn4ncnc4c(CCC(F)(F)F)n3)nc(O)c21 (stereo not shown) [Example 152A, 5-(4-chlorophenyl)-4-hydroxy-5-methyl-2-(8-(3,3,3-trifluoropropyl)-[1,2,4]triazolo[1,5-a]pyrazin-6-yl)-5H-pyrrolo[2,3-d]pyrimidin-6(7H)-one] | – | – | 70% | B (Category B=SBP in SHRs 20-40 mmHg) | – |
| CC1(c2ccc(C(F)(F)F)cn2)C(=O)Nc2nc(-c3cn4ncnc4c(CCCC(F)(F)F)n3)nc(N)c21 (stereo not shown) [Example 25B, 4-amino-5-methyl-2-(8-(4,4,4-trifluorobutyl)-[1,2,4]triazolo[1,5-a]pyrazin-6-yl)-5-(5-(trifluoromethyl)pyridin-2-yl)-5H-pyrrolo[2,3-d]pyrimidin-6(7H)-one] | – | – | 131% | – | B (Category B=SBP in SHRs 20-40 mmHg) |
| Nc1nc(-c2cn3ncnc3c(CCCC(F)(F)F)n2)nc2c1C(c1ccc(C(F)(F)F)cn1)(C1CC1)C(=O)N2 (single isomer, unassigned) [Example 2A, 4-Amino-5-cyclopropyl-2-(8-(4,4,4-trifluorobutyl)-[1,2,4]triazolo[1,5-a]pyrazin-6-yl)-5-(5-(trifluoromethyl)pyridin-2-yl)-5H-pyrrolo[2,3-d]pyrimidin-6(7H)-one] | – | – | 111% | – | A (Category A=SBP in SHRs <20 mmHg) |
| O=C1Nc2nc(-c3cn4ncnc4c(CCCC(F)(F)F)n3)nc(O)c2C1(c1ccc(Cl)cc1)C1CC1 (stereo not shown) [Example 140B, 5-(4-chlorophenyl)-5-cyclopropyl-4-hydroxy-2-(8-(4,4,4-trifluorobutyl)-[1,2,4]triazolo[1,5-a]pyrazin-6-yl)-5H-pyrrolo[2,3-d]pyrimidin-6(7H)-one] | – | A (Category A=SBP in SHRs <20 mmHg) | 150% | – | – |
